Experimental data reported in patent publication US4875922A, “Pyrimidine derivatives” (Imperial Chemical Industries PLC, priority 1986, dated 1989).

What was measured:
Barley [1] = experiment: Whole plant screen for plant growth regulator activity, barley (BR); format: in vivo, Barley (Atem); conditions: BR, 4000 ppm (4 kg/ha), visual score after 2-6 weeks; for T = Tillering or side shooting: * = decrease in tillering
Method in brief: (§1)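 Foliar spray, 4000 ppm (4 kg/ha, 1000 l/ha), tracksprayer. Glasshouse, 16 h light; MZ/RC 25/22° C., WW/BR 16/13° C. day/night. Visual morphological scoring at 2-6 wk vs formulation blank.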

Rice [2] = experiment: Modified Intermediate Retardant Test, rice; format: in vivo, Rice (Ishikari); conditions: 2000 g/ha, overall spray, height to topmost ligule 21 days after treatment
From the text: (§2) The general Intermediate Retardant Test described in Example 62 was modified by the addition of Sunflowers (SR) and the variety and growth stages at spray are outlined in Table XIII. Apart from the changes indicated, growing conditions for barley, rice and apples were as in Example 62 and growing conditions for Sunflower were as for apples. Test compounds were applied to barley, rice and apples as whole plant (overall) sprays at a rate of 2000 g/ha. Test compounds were applied to sunflowers separately as a foliar only spray at a rate of 2000 g/ha and as a root drench at a rate of 2000 g/ha.
(§3) Barley and rice were assessed for height to topmost ligule 21 days after treatment; apples were assessed for height to apex at 21 days after treatment; and sunflowers were assessed for height to apex at 14 days after treatment. The results are expressed as percentage reduction in height compared with the formulation blank in Table XIV.

Tomato = experiment: Whole plant screen for plant growth regulator activity, tomato (TO); format: in vivo, Tomato (Ailsa Craig); conditions: 4000 ppm (4 kg/ha), visual score after 2-6 weeks
Method in brief: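 Plant growth regulation scored visually 2–6 weeks post-spray, relative to formulation-blank controls, with growth at 25/22 °C day/night under 16 h light. Treatment: 4000 ppm (4 kg/ha, 1000 l/ha volume) track-sprayed onto Ailsa Craig tomato at the 2–2½ leaf stage, grown singly in 3-inch peat pots.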

Apple [3] = experiment: Modified Intermediate Retardant Test, apples; format: in vivo, Apple (Red Delicious); conditions: 2000 g/ha, overall spray, height to apex 21 days after treatment
From the text: as §2, §3

Barley [4] = experiment: Modified Intermediate Retardant Test, barley; format: in vivo, Barley (Atem); conditions: 2000 g/ha, overall spray, height to topmost ligule 21 days after treatment
From the text: as §2, §3

Wheat = experiment: Whole plant screen for plant growth regulator activity, wheat (WW); format: in vivo, Wheat (Timmo); conditions: for G = Greening effect / I = Interligular or internodal length reduction / R = Retardation / T = Tillering or side shooting: WW, 4000 ppm (4 kg/ha), visual score after 2-6 weeks; for T = Tillering or side shooting: * = decrease in tillering
Method in brief: as §1

Sunflower = experiment: Modified Intermediate Retardant Test, sunflower; format: in vivo; conditions: 2000 g/ha, height to apex 14 days after treatment; for […] IN HEIGHT, SR (Foliar): foliar only spray; for […] IN HEIGHT, SR (Root): root drench
From the text: as §2, §3

Erysiphe graminis = experiment: Foliar fungal disease control, Erysiphe graminis (barley); format: in vivo; conditions: 100 ppm spray plus root drench (approximately 40 ppm a.i/dry soil); inoculated 24 hours before treatment
Phytophthora infestans = format: in vivo; conditions: 100 ppm spray plus root drench (approximately 40 ppm a.i/dry soil), one or two days before inoculation
Apple [5] = experiment: Whole plant screen for plant growth regulator activity, apple (AP); format: in vivo, Apple (Red Delicious); conditions: 4000 ppm (4 kg/ha), visual score after 2-6 weeks
Method in brief: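 Compounds sprayed at 4000 ppm (4 kg/ha in 1000 l/ha) by tracksprayer at a defined leaf stage. Plants then grown in glasshouse at 25° C. day/22° C. night (wheat and barley 16° C. day/13° C. night), 16 hour photoperiod. Morphology visually assessed after 2-6 weeks against formulation blanks.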

Spring Barley = experiment: Intermediate Retardant Test, spring barley; format: in vivo, Spring Barley (Atem/kym); conditions: Hordeum vulgare, 672 h, overall spray, approximately 28 days, Table VII, read-out: Percentage Reduction in Height of Spring Barley (Compared to formulation blank)
Method in brief: (§4)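 Overall spray at 500 and 2000 ppm (0.5 and 2 kg/ha^-1 at 1000 l/ha^-1); for apples, a 2000 ppm foliar-only spray was also compared with a 2000 ppm root drench. Rice grew in flooded 4" paddy pots, barley and apples in 4" pots. About 28 days after treatment, height (to top-most ligule, or to apex for apples) was recorded as % reduction versus formulation blank.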

Rice [6] = experiment: Whole plant screen for plant growth regulator activity, rice (RC); format: in vivo, Rice (Ishikari); conditions: 4000 ppm (4 kg/ha), visual score after 2-6 weeks
Method in brief: as §1

Cercospora arachidicola = experiment: Foliar fungal disease control, Cercospora arachidicola (peanut); format: in vivo; conditions: 100 ppm spray plus root drench (approximately 40 ppm a.i/dry soil), one or two days before inoculation
Apples = experiment: Intermediate Retardant Test, apples, foliar spray compared with root drench; format: in vivo, Apples (Red Delicious); conditions: 672 h, approximately 28 days, Table IX, read-out: Percentage Reduction in Height of Apples (Compared to formulation blank)
Method in brief: as §4

Maize = experiment: Whole plant screen for plant growth regulator activity, maize (MZ); format: in vivo, Maize (Earliking); conditions: 4000 ppm (4 kg/ha), visual score after 2-6 weeks
Method: Compounds 1 to 3 in Table 1 were tested for plant growth regulator activity against five species for various growth effects relevant to plant growth regulation.
The plant species used in this screen are presented in Table II with the leaf stage at which they were sprayed. Each chemical was applied at 4000 ppm (4 kg/ha in a 1000 l/ha field volume) using a tracksprayer and a SS8004E (Teejet) nozzle.
After spray the plants were grown in a glasshouse with 25° C. day/22° C. night temperatures and supplementary lighting was supplied when necessary (from mercury vapour lamps), to provide a 16 hour photoperiod. The exception to this were the temperate cereals, wheat and barley which were grown in 16° C. day/13° C. night temperatures.
After 2-6 weeks in the glasshouse, depending on the time of year, the plants were visually assessed for morphological characteristics. Formulation blanks were used as controls to assess the plants. […]

Rice [7] = experiment: Intermediate Retardant Test, rice; format: in vivo, Rice (Ishikari); conditions: Oryza sativa, 672 h, overall spray, approximately 28 days, Table VI, read-out: Percentage Reduction in Height of Rice (Compared to formulation blank)
Method in brief: as §4

Puccinia recondita = experiment: Foliar fungal disease control, Puccinia recondita (wheat); format: in vivo; conditions: 100 ppm spray plus root drench (approximately 40 ppm a.i/dry soil), one or two days before inoculation
Pyricularia oryzae = format: in vivo; conditions: 100 ppm spray plus root drench (approximately 40 ppm a.i/dry soil), one or two days before inoculation
Plasmopara viticola = experiment: Foliar fungal disease control, Plasmopara viticola (vine); format: in vivo; conditions: 100 ppm spray plus root drench (approximately 40 ppm a.i/dry soil), one or two days before inoculation

SMILES | G = Greening effect (Barley [1]) | I = Interligular or internodal length reduction (Barley [1]) | R = Retardation (Barley [1]) | T = Tillering or side shooting (Barley [1]) | […] IN HEIGHT, RC (Rice [2]) [%] | G = Greening effect (Tomato) | I = Interligular or internodal length reduction (Tomato) | R = Retardation (Tomato) | […] IN HEIGHT, AP (Apple [3]) [%] | […] IN HEIGHT, BR (Barley [4]) [%] | G = Greening effect (Wheat) | I = Interligular or internodal length reduction (Wheat) | R = Retardation (Wheat) | […] IN HEIGHT, SR (Foliar) (Sunflower) [%] | […] IN HEIGHT, SR (Root) (Sunflower) [%] | T = Tillering or side shooting (Wheat) | disease control, ERYSIPHE GRAMINIS (BARLEY) (Erysiphe graminis) | disease control, PH[…] (TOMATO) (Phytophthora infestans) | disease control, CERCOSPORA ARACHIDICOLA (PEANUT) (Cercospora arachidicola) | disease control, PUCCINIA RECONDITA (WHEAT) (Puccinia recondita) | also measured
CCC/C=C\C(O)(c1cncnc1)C(C)C (centres unmarked) [Compound 25, 2-methyl-1-(pent-1-ene)-1-(pyrimidin-5-yl)-propan-1-ol] | 3 (61-100%) | 3 (61-100%) | 3 (61-100%) | 1* | 55 | 2 (31-60%) | 1 (10-30%) | 1 (10-30%) | 31 | 52 | 2 (31-60%) | 1 (10-30%) | 1 (10-30%) | 0 | 54 |  |  |  |  |  | 
CCCCCC#CC(O)(c1cncnc1)C(C)C (centres unmarked) [Compound 23] | 2 (31-60%) | 3 (61-100%) | 3 (61-100%) | 1 (10-30%) | 54 | 2 (31-60%) |  | 2 (31-60%) | 50 | 29 | 2 (31-60%) |  | 2 (31-60%) | 2 | 45 |  |  |  |  |  | 
CCCCCC#CC(O)(c1cncnc1)C(C)(C)C (centres unmarked) [Compound 32] | 2 (31-60%) | 3 (61-100%) | 3 (61-100%) | 1 (10-30%) | 46 | 2 (31-60%) | 1 (10-30%) | 2 (31-60%) | 30 | 17 | 1 (10-30%) | 3 (61-100%) | 2 (31-60%) | 13 | 37 |  |  |  |  |  | 
CCCCC#CC(O)(c1cncnc1)C(C)(C)C (centres unmarked) [Compound 31] | 3 (61-100%) | 3 (61-100%) | 3 (61-100%) | 1 (10-30%) | 77 | 2 (31-60%) | 3 (61-100%) | 3 (61-100%) | 50 | 69 | 3 (61-100%) | 3 (61-100%) |  | 19 | 51 | 1 (10-30%) |  |  |  |  | A = Apical damage (Wheat; 4000 ppm): 1 (10-30%)
CC(C)CCCC(O)(c1cncnc1)C(C)C (centres unmarked) [Compound 7, 2-Methyl-1-(4-methylpentyl)-1-(pyrimidin-5-yl)propan-1-ol] | 2 (31-60%) | 2 (31-60%) | 2 (31-60%) | 1 (10-30%) |  | 2 (31-60%) | 3 (61-100%) | 3 (61-100%) |  |  | 2 (31-60%) | 3 (61-100%) | 3 (61-100%) |  |  | 3 (61-100%) | 4 | 0 (60-100% of disease on untreated plants) | 0 (60-100% of disease on untreated plants) | 0 (60-100% of disease on untreated plants) | G = Greening effect (Apple [5]): 1 (10-30%); I = Interligular or internodal length reduction (Apple [5]): 2 (31-60%); R = Retardation (Apple [5]): 3 (61-100%); percent reduction in plant height at 500 ppm (Spring Barley; 500 ppm): 23%; percent reduction in plant height at 2000 ppm (Spring Barley; 2000 ppm): 47%; G = Greening effect (Rice [6]): 1 (10-30%); I = Interligular or internodal length reduction (Rice [6]): 2 (31-60%); R = Retardation (Rice [6]): 2 (31-60%); percent reduction in plant height at 2000 ppm (Apples; 2000 ppm (Foliar)): 12%; percent reduction in plant height at 2000 µg/mL (Apples; soil, 2000 pmm (Root), root drench): 45%; G = Greening effect (Maize): 1 (10-30%); I = Interligular or internodal length reduction (Maize): 2 (31-60%); R = Retardation (Maize): 2 (31-60%); Percent reduction in rice height vs formulation blank at 500 ppm (Rice [7]; 500 ppm): 31%; Percent reduction in rice height vs formulation blank at 2000 ppm (Rice [7]; 2000 ppm): 45%; disease control, P[…] (RICE) (Pyricularia oryzae): 0 (60-100% of disease on untreated plants)
CC(C)(C)/C=C/C(O)(c1cncnc1)C1(C)CC1 (centres unmarked) [Compound 55] |  |  |  | 3 (61-100%) |  | 2 (31-60%) | 2 (31-60%) | 2 (31-60%) |  |  | 1 (10-30%) | 2 (31-60%) | 2 (31-60%) |  |  | 1 (10-30%) | 4 | 0 (60-100% of disease on untreated plants) | 4 | 4 | disease control, PLASMOPARA VITICOLA (VINE) (Plasmopara viticola): 0 (60-100% of disease on untreated plants); disease control, P[…] (RICE) (Pyricularia oryzae): 0 (60-100% of disease on untreated plants)
